Assay results reported in patent US20250368667A1, “USP1 INHIBITOR” (Shanghai Qilu Pharmaceutical Research and Development …, priority 2022, published 2025).

target: recombinant human His6-USP1/His6-UAF1 composite protein (Homo sapiens (Human), UniProt O94782); experiment: USP1 enzyme activity detection (Ub-Rho fluorescence); assay type: biochemical; settings: USP1/UAF1, Ub-Rho substrate 300 nM, 1 hour pre-incubation; read-out: IC50 (enzymatic inhibition of USP1)
Sequence (O94782 whole entry): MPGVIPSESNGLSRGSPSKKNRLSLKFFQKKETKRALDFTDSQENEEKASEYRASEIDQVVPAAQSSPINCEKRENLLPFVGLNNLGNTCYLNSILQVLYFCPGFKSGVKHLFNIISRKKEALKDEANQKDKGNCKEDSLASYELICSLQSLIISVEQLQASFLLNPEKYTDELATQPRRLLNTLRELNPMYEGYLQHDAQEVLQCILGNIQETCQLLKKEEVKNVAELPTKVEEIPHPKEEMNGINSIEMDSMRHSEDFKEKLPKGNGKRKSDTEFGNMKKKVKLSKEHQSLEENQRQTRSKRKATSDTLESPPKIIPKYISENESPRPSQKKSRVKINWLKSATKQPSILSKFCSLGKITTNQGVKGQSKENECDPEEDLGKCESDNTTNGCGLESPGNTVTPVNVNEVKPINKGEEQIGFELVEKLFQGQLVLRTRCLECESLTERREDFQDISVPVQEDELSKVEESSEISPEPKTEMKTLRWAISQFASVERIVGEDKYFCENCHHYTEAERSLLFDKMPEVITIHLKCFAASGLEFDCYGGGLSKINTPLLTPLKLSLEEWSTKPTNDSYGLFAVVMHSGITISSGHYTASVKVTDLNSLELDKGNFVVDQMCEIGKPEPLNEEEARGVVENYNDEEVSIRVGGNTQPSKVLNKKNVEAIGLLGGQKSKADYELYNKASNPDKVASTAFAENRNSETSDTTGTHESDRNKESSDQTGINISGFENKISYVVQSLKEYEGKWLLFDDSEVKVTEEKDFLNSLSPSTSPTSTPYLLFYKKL
Sequence (Q8TAF3 whole entry partner): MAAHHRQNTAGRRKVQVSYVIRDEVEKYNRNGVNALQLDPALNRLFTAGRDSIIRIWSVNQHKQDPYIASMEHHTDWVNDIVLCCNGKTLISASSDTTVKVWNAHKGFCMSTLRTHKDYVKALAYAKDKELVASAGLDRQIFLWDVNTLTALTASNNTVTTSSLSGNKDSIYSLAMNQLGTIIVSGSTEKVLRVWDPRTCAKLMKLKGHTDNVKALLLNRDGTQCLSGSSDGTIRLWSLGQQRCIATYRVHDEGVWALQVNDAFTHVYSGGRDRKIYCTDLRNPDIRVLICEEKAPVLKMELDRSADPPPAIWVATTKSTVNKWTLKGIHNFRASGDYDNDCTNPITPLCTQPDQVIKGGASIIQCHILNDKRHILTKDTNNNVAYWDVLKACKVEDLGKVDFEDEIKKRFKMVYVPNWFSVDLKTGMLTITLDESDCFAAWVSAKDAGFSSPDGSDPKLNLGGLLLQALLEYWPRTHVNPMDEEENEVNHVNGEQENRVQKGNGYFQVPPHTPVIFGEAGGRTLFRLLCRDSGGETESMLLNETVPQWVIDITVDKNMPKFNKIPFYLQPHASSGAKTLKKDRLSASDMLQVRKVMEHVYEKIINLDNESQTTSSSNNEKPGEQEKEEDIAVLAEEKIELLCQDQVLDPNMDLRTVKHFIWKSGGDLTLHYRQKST
Excerpt: USPli compounds were screened by USP1 enzyme activity detection experiment.
1.1 Experimental materials: recombinant human His6-USP1/His6-UAF1 composite protein. (R&D, catalog number E-568-050): Ubiquitin rhodamine 110 (Ub-Rho) (R&D, catalog number U-555-050); Fluorescent 384-well plate (Perkin Elmer, Art. No. 6007279).
1.2 Test sample: Compounds of table 3 in this application, whose structural formulae and preparation methods are shown in the above examples.
Using Equation (I) to fit data in Excel to obtain the inhibition value;
[formula] • wherein, the maximum signal value represents the luminous signal intensity of the positive control hole without adding the compound of the application; the minimum signal value represents the luminous signal intensity of the negative control hole without enzyme; and the target signal value represents the luminous signal intensity of the Test samples; and • fitting the data in XL-Fit with Equation (II) to obtain IC50 value:
[formula] • wherein Y is the inhibition rate, X is the concentration of the compound; Bottom is the lowest inhibition rate; Top is the highest inhibition rate; and HillSlope is the slope.

| Compound | IC50 |
| --- | --- |
| COc1ncnc(C2CC2)c1-c1ncc2c3cn(C)nc3n(Cc3ccc(-c4nc(C(F)(F)F)c5ccccn45)cc3)c2n1 [Compound 156] | 3.5 nM |
| COc1ncnc(C2CC2)c1-c1ncc2c3ccc(S(C)(=O)=O)cc3n(Cc3ccc(-c4nc(C(F)(F)F)cn4C(C)C)cc3)c2n1 [Compound 14] | 4.32 nM |
| COc1ncnc(C2CC2)c1-c1ncc2c3ccccc3n(Cc3ccc(-c4nc(C(F)(F)F)cn4C(C)C)cc3)c2n1 [Compound 2, 2-(4-cyclopropyl-6-methoxypyrimidin-5-yl)-9-(4-(1-isopropyl-4-(trifluoromethyl)-1H-imidazo 1-2-yl)benzyl)-9H-pyrimido[4,5-b]indole] | 7.55 nM |
| COc1ncnc(C2CC2)c1-c1ncc2c3ccc(Cl)cc3n(Cc3ccc(-c4nc(C(F)(F)F)cn4C)cc3)c2n1 [Compound 54] | 9.88 nM |
| COc1cc(Cn2c3ccccc3c3cnc(-c4c(OC)ncnc4C4CC4)nc32)ccc1-c1nc(C(F)(F)F)cn1C(C)C [Compound 18] | 7.38 nM |
| COc1ncnc(C2CC2)c1-c1ncc2c3ccncc3n(Cc3ccc(-c4nc(C(F)(F)F)c(F)n4C)cc3)c2n1 [Compound 155] | 26 nM |
| COc1ncnc(C2CC2)c1-c1ncc2c3c(F)cccc3n(Cc3ccc(-c4nc(C(F)(F)F)cn4C(C)C)cc3)c2n1 [Compound 4, 2-(4-cyclopropyl-6-methoxypyrimidin-5-yl)-5-fluoro-9-(4-(1-isopropyl-4-(trifluoromethyl)-1H-imidazol-2-yl)benzyl)-9H-pyrimido[4,5-b]indole] | 6.85 nM |
| COc1ncnc(C2CC2)c1-c1ncc2c3ccc(C#N)cc3n(Cc3ccc(-c4nc(C(F)(F)F)c5cnccn45)cc3)c2n1 [Compound 129] | 36 nM |
| COc1ncnc(C2CC2)c1-c1ncc2c3ccc(C#N)cc3n(Cc3ccc4c(c3)COCCn3cc(C(F)(F)F)nc3-4)c2n1 [Compound 92] | 25.9 nM |
| COc1ncnc(C2CC2)c1-c1ncc2c3ccc(F)nc3n(Cc3ccc4c(c3)CCCn3cc(C(F)(F)F)nc3-4)c2n1 [Compound 94] | 3.69 nM |
| COc1ncnc(C2CC2)c1-c1ncc2c3ccc(C#N)cc3n(Cc3ccc(-c4nc(C(F)(F)F)c5ccccn45)cc3)c2n1 [Compound 126] | 7.1 nM |
| COc1ncnc(C2CC2)c1-c1ncc2c3ccc(C(O)(C(F)(F)F)C(F)(F)F)cc3n(Cc3ccc(-c4nc(C(F)(F)F)cn4C)cc3)c2n1 [Compound 122] | 36 nM |
| CC(C)c1ncccc1-c1ncc2c3ccncc3n(Cc3ccc(-c4nc(C(F)(F)F)cn4C)cc3)c2n1 [Compound 80] | 6.55 nM |
| COc1ncnc(C2CC2)c1-c1ncc2c3ccncc3n(C3CCc4cc(-c5nc(C(F)(F)F)cn5C)ccc43)c2n1 (stereo not shown) [Compound 124] | 38.5 nM |
| COc1ncnc(C2CC2)c1-c1ncc2c3ccc(NCCO)nc3n(Cc3ccc4c(c3)CCCn3cc(C(F)(F)F)nc3-4)c2n1 [Compound 97] | 2.1 nM |
| COc1ncnc(C2CC2)c1-c1ncc2c3ccc(N4CCOCC4)nc3n(Cc3ccc4c(c3)CCCn3cc(C(F)(F)F)nc3-4)c2n1 [Compound 135] | 4.4 nM |
| COc1ncnc(C2CC2)c1-c1ncc2c3cn(C)nc3n(Cc3ccc4c(c3)CCCCn3cc(C(F)(F)F)nc3-4)c2n1 [Compound 138] | 1.8 nM |
| COc1ncnc(C2CC2)c1-c1ncc2c3ccncc3n(Cc3ccc(-c4nc(C(F)(F)F)c(C)n4C)cc3)c2n1 [Compound 151] | 1 nM |
| COc1ncnc(C2CC2)c1-c1ncc2c3ccc(C(F)(F)F)cc3n(Cc3ccc(-c4nc(C(F)(F)F)cn4C(C)C)cc3)c2n1 [Compound 8, 2-(4-cyclopropyl-6-methoxypyrimidin-5-yl)-9-(4-(1-isopropyl-4-(trifluoromethyl)-1H-imidazo 1-2-yl)benzyl)-7-(trifluoroethyl)-9H-pyrimido[4,5-b]indole] | 21 nM |
| COc1ncnc(C2CC2)c1-c1ncc2c(n1)n(Cc1ccc(-c3nc(C(F)(F)F)cn3C(C)C)cc1)c1nccn21 [Compound 32] | 19.1 nM |
| COc1ncnc(C2CC2)c1-c1ncc2c3ccc(P(C)(C)=O)cc3n(Cc3ccc4c(c3)CCCn3cc(C(F)(F)F)nc3-4)c2n1 [Compound 96] | 4.89 nM |
| COc1ncnc(C2CC2)c1-c1ncc2c3ccccc3n(Cc3ccc(-c4nc(C(F)(F)F)cn4C)cc3)c2n1 [Compound 1, 2-(4-cyclopropyl-6-methoxypyrimidin-5-yl)-9-(4-(1-methyl-4-(trifluoromethyl)-1H-imidazol-2-yl)benzyl)-9H-pyrimido[4,5-b]indole] | 4.04 nM |
| COc1ncnc(C2CC2)c1-c1ncc2c3ccc(P4(=O)CCCC4)cc3n(Cc3ccc(-c4nc(C(F)(F)F)cn4C(C)C)c(F)c3)c2n1 [Compound 141] | 4 nM |
| CCn1cc(C(F)(F)F)nc1-c1ccc(Cn2c3cnccc3c3cnc(-c4c(OC)ncnc4C4CC4)nc32)cc1 [Compound 66] | 1.62 nM |
| COc1ncnc(C2CC2)c1-c1ncc2c3ccc(C#N)cc3n(Cc3cc(O)c4c(c3)OCCn3cc(C(F)(F)F)nc3-4)c2n1 [Compound 77] | 99.1 nM |
| COc1ncnc(C2CC2)c1-c1ncc2c3cc(S(C)(=O)=O)ccc3n(Cc3ccc(-c4nc(C(F)(F)F)cn4C)cc3)c2n1 [Compound 37] | 58 nM |
| COc1ncnc(C2CC2)c1-c1ncc2c3ccncc3n(Cc3ccc4c(c3)CCCCn3cc(C(F)(F)F)nc3-4)c2n1 [Compound 90] | 3.65 nM |
| Cn1cc(C(F)(F)F)nc1-c1ccc(Cn2c3cnccc3c3cnc(-c4cccc5ccn(C)c45)nc32)cc1 [Compound 85] | 73.5 nM |

| Compound | IC50 |
| --- | --- |
| COc1ncnc(C2CC2)c1-c1ncc2c3ccc(C#N)cc3n(Cc3ccc4c(c3)Cn3cc(C(F)(F)F)nc3-4)c2n1 [Compound 70] | 191 nM |
| CN1CCc2cccc(-c3ncc4c5ccncc5n(Cc5ccc(-c6nc(C(F)(F)F)cn6C)cc5)c4n3)c21 [Compound 84] | 59 nM |
| COc1ncnc(C2CC2)c1-c1ncc2c3ccc(P4(=O)CCCC4)cc3n(Cc3ccc(-c4nc(C(F)(F)F)c5n4CCC5)cc3)c2n1 [Compound 142] | 6.2 nM |
| COc1ncnc(C2CC2)c1-c1ncc2c3ccc(C#N)cc3n(Cc3ccc(-c4nc(C(F)(F)F)cn4C)cc3)c2n1 [Compound 21] | 4.39 nM |
| COc1ncnc(C2CC2)c1-c1ncc2c3cnn(C)c3n(Cc3ccc4c(c3)CCCn3cc(C(F)(F)F)nc3-4)c2n1 [Compound 123] | 13.7 nM |
| COc1ccc2c3cnc(-c4c(OC)ncnc4C4CC4)nc3n(Cc3ccc4c(c3)CCCn3cc(C(F)(F)F)nc3-4)c2n1 [Compound 93] | 2.56 nM |
| COc1ncnc(C2CC2)c1-c1ncc2c3cccnc3n(Cc3ccc(-c4nc(C(F)(F)F)cn4C(C)C)cc3)c2n1 [Compound 36] | 8.98 nM |
| COc1ncnc(C2CC2)c1-c1ncc2c3cn(C)nc3n(Cc3ccc(-c4nc(C(F)(F)F)sc4C)cc3)c2n1 [Compound 131] | 4.68 nM |
| COc1ncnc(C2CC2)c1-c1ncc2c3ccc(NS(C)(=O)=O)cc3n(Cc3ccc(-c4nc(C(F)(F)F)cn4C)cc3)c2n1 [Compound 59] | 7.21 nM |
| COc1ncnc(C2CC2)c1-c1ncc2c3ccc(C#N)cc3n(Cc3cc4c(cn3)-c3nc(C(F)(F)F)cn3CCC4)c2n1 [Compound 119] | 17.8 nM |
| COc1ncnc(C2CC2)c1-c1ncc2c3cccnc3n(Cc3ccc(-c4nc(C(F)(F)F)cn4C)cc3)c2n1 [Compound 53] | 5.58 nM |
| CCn1cc(C(F)(F)F)nc1-c1ccc(Cn2c3ccccc3c3cnc(-c4c(OC)ncnc4C4CC4)nc32)cc1 [Compound 9, 2-(4-cyclopropyl-6-methoxypyrimidin-5-yl)-9-(4-(1-ethyl-4-(trifluoromethyl)-1H-imidazol-2-yl)benzyl)-9H-pyrimido[4,5-b]indole] | 4.07 nM |
| COc1ncnc(C2CC2)c1-c1ncc2c3c(n(Cc4ccc(-c5nc(C(F)(F)F)cn5C)cc4)c2n1)CCC3 [Compound 31] | 4.85 nM |
| COc1ncnc(C2CC2)c1-c1ncc2c3ccccc3n([C@@H](C)c3ccc(-c4nc(C(F)(F)F)cn4C(C)C)cc3)c2n1 [Compound 13-P1] | 6.01 nM |
| CNc1ccc2c3cnc(-c4c(OC)ncnc4C4CC4)nc3n(Cc3ccc(-c4nc(C(F)(F)F)cn4C)cc3)c2n1 [Compound 74] | 4.13 nM |
| COc1cc(Cn2c3ccccc3c3cnc(-c4c(OC)ncnc4C4CC4)nc32)cc(F)c1-c1nc(C(F)(F)F)cn1C(C)C [Compound 19] | 8.25 nM |
| COc1ncnc(C2CC2)c1-c1ncc2c3cccc(Cl)c3n(Cc3ccc(-c4nc(C(F)(F)F)cn4C)cc3)c2n1 [Compound 44] | 4.22 nM |
| COc1ncnc(C2CC2)c1-c1ncc2c3ncncc3n(Cc3ccc4c(c3)CCCn3cc(C(F)(F)F)nc3-4)c2n1 [Compound 112] | 23.9 nM |
| COc1ncnc(C2CC2)c1-c1ncc2c3cccc(F)c3n(Cc3ccc(-c4nc(C(F)(F)F)cn4C)cc3)c2n1 [Compound 27] | 9.95 nM |
| COc1ncnc(C2CC2)c1-c1ncc2c3ccncc3n(Cc3ccc(-c4nc(C(F)(F)F)cn4C)cc3)c2n1 [Compound 78] | 4.39 nM |
| COc1ncnc(C2CC2)c1-c1ncc2c3cn(C)nc3n(Cc3ccc(-c4nc(C(F)(F)F)c5n4CCCC5)cc3)c2n1 [Compound 120] | 1.97 nM |
| CCP(=O)(CC)c1ccc2c3cnc(-c4c(OC)ncnc4C4CC4)nc3n(Cc3ccc4c(c3)CCCn3cc(C(F)(F)F)nc3-4)c2c1 [Compound 154] | 6.2 nM |
| CC(C)n1ncc(Cl)c1-c1ncc2c3ccccc3n(Cc3ccc(-c4nc(C(F)(F)F)cn4C)cc3)c2n1 [Compound 20] | 3.26 nM |
| [2H]C([2H])([2H])n1cc2c3cnc(-c4c(OC)ncnc4C4CC4)nc3n(Cc3ccc(-c4nc(C(F)(F)F)cn4C(C)C)c(F)c3)c2n1 [Compound 145] | 5.91 nM |
| COc1ncnc(C2CC2)c1-c1ncc2c3ccccc3n([C@H](C)c3ccc(-c4nc(C(F)(F)F)cn4C(C)C)cc3)c2n1 [Compound 13-P2] | 5 nM |
| CCOc1cc(C(F)(F)F)nn1-c1ccc(Cn2c3ccccc3c3cnc(-c4c(OC)ncnc4C4CC4)nc32)cc1 [Compound 10, 2-(4-cyclopropyl-6-methoxypyrimidin-5-yl)-9-(4-(5-ethoxy-3-(trifluoromethyl)-1H-pyrazol-1-yl)benzyl)-9H-pyrimido[4,5-b]indole] | 17.8 nM |
| COc1ccc2c(c1)c1cnc(-c3c(OC)ncnc3C3CC3)nc1n2Cc1ccc(-c2nc(C(F)(F)F)cn2C(C)C)cc1 [Compound 33] | 26.1 nM |
